According to US11433136B2, “Polyacetal polymers, conjugates, particles and uses thereof” (THE GENERAL HOSPITAL CORPORATION, priority 2015, dated 2022):

What was measured:
[1] = system: orthotopic AK4.4 pancreatic tumors; experiment: Orthotopic AK4.4 pancreatic tumor study in lean and obese mice; assay type: in vivo, mouse; details: for gene and protein expression of activated PSC marker αSMA in tumors: losartan 90 mg/Kg i.p. every day
From the text: (§1) Wild-type (WT) C57BL/6 and FVB male mice were originally obtained from Jackson Laboratory (The Jackson Laboratory, Bar Harbor, Me.) and bred and maintained in our defined-flora colony. KPC (Ptf1-Cre/LSL-KRAS^G12D/p53-R172H) and iKRAS (p48-Cre;R26-rtTa-IRES-EGFP;TetO-Kras^G12D mice) mice were obtained. To generate an obese model, mice (6-week old) were given either 10% or a 60% fat diet (D12450J and D12492, Research Diets, New Brunswick, N.J.) for 10 weeks (or until tumor collection in spontaneous models), as previously described (Surwit, R. S., et al. Metabolism: clinical and experimental 44, 645-651 (1995)). For implanted tumor experiments, AK4.4 cells (KrasG12D and p53 ? /) were isolated from mice generating spontaneous pancreatic tumors (Ptf1-Cre/LSL-Kras^G12D/p53Lox/ ? ) (Bardeesy, N., et al. Proc Natl Acad Sci USA 103, 5947-5952 (2006)). Orthotopic pancreatic tumors were generated by implanting a small piece (1 mm^3) of viable tumor tissue (from a source tumor in a separate animal) into the pancreas of a 6-8 week-old male lean or obese FVB (AK4.4 model) or C57BL/6 (PAN02 model) mouse. PAN02 tumor chunks and AK4.4 cells were authenticated by IDEXX laboratories. (PAN02: IDEXX RADIL Case #22366-2013. AK4.4: IDEXX RADIL Case #27818-2014). For AT1- and AT2-knockout studies, tumors were implanted into the pancreas of a 6-8-week-old male lean or obese C57BL/6, agtr1a−/− or agtr2−/− mice. With exception of PAN02, these orthotopically grown pancreatic cancers are characterized by a dense collagenous stroma, a hallmark of pancreatic cancer desmoplasia (Diop-Frimpong, B., et al. Proc Natl Acad Sci USA 108, 2909-2914 (2011)).
(§2) For all experiments unless specified below, mice bearing orthotopic PAN02 or AK4.4 pancreatic tumors were randomized into treatment groups (or no treatment) and tumors were collected at day 21 after implantation. For tumor growth study with chemotherapy, mice were divided into treatment groups 7 days after implantation, and treated with either 5-FU (30 mg/Kg i.v. every 4 days) or an equal volume of saline by intravenous injection on days 7, 11 and 15 after implantation, with tumors collected at day 19. For tumor growth study with losartan, mice were treated with losartan (90 mg/Kg i.p. every day) or an equal volume of PBS intraperitoneally starting on day 5 after implantation and for the duration of the study. In the combined experiment of losartan and 5-FU, the same protocol was used for each drug as described above. TAN depletion by a Ly6G specific inhibitor (BioExcell, 4 mg/Kg i.p. every 2 days) was administered to PAN02 bearing animals starting at day 1 or day 7, and to AK4.4 bearing animals at day 7. IL-1β inhibition (MM425B, Endogen/Pierce Biotechnology, 2 mg/Kg i.p. every 2 days) was administered to PAN02 bearing animals starting at day 7. At the completion of the study, adipose tissue and tumor samples were collected, weighed, and processed for further analysis. When spontaneous models were used, tumors were collected when palpable.
(§3) To assess obesity-induced ECM remodeling and fibrosis fibrillar collagen accumulation was quantified using second harmonic generation imaging, and collagen-I content, hyaluronan, MMPs levels and fibrosis related signaling pathways (e.g. AT-I, CTGF, TSP 1, TGFβ1, and P38/ERK signaling) were measured by rtPCR array, immunohistochemistry and immunoblotting. The topographical distribution and density of cancer-associated fibroblasts (CAFs) in tumor sections was detected by staining for αSMA activated fibroblast marker. Vessel morphology and perfusion was assessed using standard histological analyses.
Tumor-bearing mice were perfused through intracardiac injection of PBS and sacrificed. Pancreatic tumor tissues were harvested, minced, and digested at 37° C. for 1 h with DMEM containing collagenase type 1A (1.5 mg/mL), hyaluronidase (1.5 mg/mL), and DNase (2 mg/mL). The digestion mixtures were filtered through 70-μm cell strainers. […]

[2] = system: orthotopic PAN02 pancreatic tumors; experiment: Orthotopic PAN02 pancreatic tumor study in lean and obese mice; assay type: in vivo, mouse; details: for gene and protein expression of activated PSC marker αSMA in tumors: losartan 90 mg/Kg i.p. every day
From the text: as §1, §2, §3
Mice bearing orthotopic PAN02 were injected with 30 mg/kg of 5-FU 3 weeks after tumor implantation, administered retro-orbitally 30 min prior to tumor removal. The tissue was dabbed of excess blood and then snap-frozen in liquid nitrogen for analysis. […]

[3] = lean mice, 3 doses of 5-FU 30 mg/kg BW q4d
[4] = obese mice, 3 doses of 5-FU 30 mg/kg BW q4d
[5] = obese mice, effects only modest in lean animals
[6] = obese, but not lean mice, losartan

Row | Structure (SMILES) | reduction in tumor weight as compared to untreated controls [1, 3] [%] | effect on tumor weight [1, 4] | reduction in tumor weight as compared to untreated controls [2, 3] [%] | effect on tumor weight [2, 4] | delivery of 5-FU to tumors ([2]; tumors in obese mice versus lean, 30 mg/kg, 30 min prior to tumor removal) | gene and protein expression of activated PSC marker αSMA in tumors ([1]; lean mice) | tumor weight, losartan monotherapy ([1]; obese mice) | gene and protein expression of activated PSC marker αSMA in tumors ([1]; obese mice) | obesity-induced abnormal expression of desmoplasia-related markers and AT1 downstream signaling [1, 5] | response to chemotherapy with AT1 blockade ([1]; obese mice, somewhat effective in the lean setting, losartan plus 5-FU) | gene and protein expression of collagen-I and fibrillar collagen in tumors [1, 6] | gene and protein expression of activated PSC marker αSMA in tumors ([2]; lean mice) | response to chemotherapy with AT1 blockade ([2]; obese but not lean animals, losartan plus 5-FU) | tumor weight, losartan monotherapy ([2]; obese mice) | gene and protein expression of activated PSC marker αSMA in tumors ([2]; obese mice) | obesity-induced abnormal expression of desmoplasia-related markers and AT1 downstream signaling [2, 5] | gene and protein expression of collagen-I and fibrillar collagen in tumors [2, 6]
1 | O=c1[nH]cc(F)c(=O)[nH]1 [Example 5-FU, 5-fluorouracil] | 50 | did not significantly reduce tumor weight | 50 | did not significantly reduce tumor weight | decreased | – | – | – | – | – | – | – | – | – | – | – | –
2 | CCCCc1nc(Cl)c(CO)n1Cc1ccc(-c2ccccc2-c2nn[nH]n2)cc1 [losartan] | – | – | – | – | – | only mildly | reduced tumor weight | reduce | normalized | improved therapeutic response in tumors to a greater extent | decrease | only mildly | enhanced | reduced tumor weight | reduce | normalized | decrease
